Measurements published in patent publication US20220144817A1 (Karuna Therapeutics, Inc., priority 2019, published 2022).
Where a name gives a salt, the structure may show the parent alone.

Tests used:
[1] = Pharmacokinetics following single oral dose administration in male Sprague-Dawley rats; type: in vivo; conditions: single oral dose of the tartrate salt, 25 mg/kg, plasma, normalized to actual dosing concentration
Procedure: Blood samples were collected from all animals in Groups 1-3 at 0.25, 0.5, 1, 2, 4, 6, 8, 12 and 24 hours post dose, with each animal bled at all time points. […] The slopes of the elimination phase of the concentrations vs. time curve used to calculate the T1/2 were determined by log-linear regression.
PK analyses were performed and validated using Phoenix® WinNonlin® version 8.0.
Estimated elimination half-life (tr) was also similar among treatment groups (ranged between 1.5 and 2.7 hours post-dose).

[2] = target: T1, muscarinic acetylcholine receptor human M2 (hM2) (Homo sapiens, UniProt P08172); assay: pERK dose response in CHO cells stably expressing hM2; type: cell-based; conditions: rank hM3>hM5>hM2
T1 construct: expressed in transfected cells
T1 sequence (P08172 1-466): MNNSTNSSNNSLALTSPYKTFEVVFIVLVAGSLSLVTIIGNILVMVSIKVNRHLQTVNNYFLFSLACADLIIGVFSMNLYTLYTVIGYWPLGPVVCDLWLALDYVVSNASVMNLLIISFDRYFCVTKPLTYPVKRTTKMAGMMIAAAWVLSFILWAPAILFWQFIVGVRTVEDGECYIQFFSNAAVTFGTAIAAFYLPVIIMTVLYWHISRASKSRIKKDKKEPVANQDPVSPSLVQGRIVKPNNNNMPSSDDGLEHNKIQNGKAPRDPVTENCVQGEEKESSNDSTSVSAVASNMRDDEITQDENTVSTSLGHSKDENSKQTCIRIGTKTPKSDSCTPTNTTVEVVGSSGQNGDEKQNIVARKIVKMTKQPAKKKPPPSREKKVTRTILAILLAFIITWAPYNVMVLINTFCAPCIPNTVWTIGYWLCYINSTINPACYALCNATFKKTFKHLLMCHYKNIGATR

[3] = target: T2, muscarinic acetylcholine receptor human M3 (hM3) (Homo sapiens, UniProt P20309); assay: pERK dose response in CHO cells stably expressing hM3; type: cell-based; conditions: for EC50: CHO cells expressing hM3, 5-minute incubation, normalized to maximum FBS response, n=3, read-out: pEC50 (pERK), M3 (converted); for agonist capacity at hM3: pERK, rank hM3>hM5>hM2
T2 construct: expressed in transfected cells

[4] = target: T3, muscarinic acetylcholine receptor human M4 (hM4) (Homo sapiens, UniProt P08173); conditions: pERK; rank hM4>hM1
T3 sequence (P08173 1-479): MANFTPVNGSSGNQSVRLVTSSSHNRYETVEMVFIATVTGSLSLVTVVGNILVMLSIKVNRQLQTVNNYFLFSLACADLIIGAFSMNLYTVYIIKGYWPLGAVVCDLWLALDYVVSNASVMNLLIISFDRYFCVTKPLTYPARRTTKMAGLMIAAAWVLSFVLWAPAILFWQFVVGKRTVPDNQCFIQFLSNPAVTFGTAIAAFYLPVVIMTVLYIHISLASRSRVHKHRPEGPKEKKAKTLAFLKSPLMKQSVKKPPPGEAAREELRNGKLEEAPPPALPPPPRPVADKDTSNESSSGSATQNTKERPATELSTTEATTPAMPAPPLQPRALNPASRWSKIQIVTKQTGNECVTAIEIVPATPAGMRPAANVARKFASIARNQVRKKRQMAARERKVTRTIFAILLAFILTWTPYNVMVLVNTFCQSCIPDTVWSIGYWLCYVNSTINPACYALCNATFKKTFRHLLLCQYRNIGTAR
Text: (§1) The Flp-In™ cell lines are designed for rapid generation of stable cell lines that express a protein of interest from a Flp-In™ expression vector.
(§2) Extracellular signal-related kinase (ERK1/2 or p42/44) is a kinase in the mitogen-activated protein kinase (MAPK) family. Phosphorylation of ERK (pERK) can be used as a common end point measurement for the activation of many classes of G protein coupled receptors (GPCR) and beta-arrestin linked signaling.
(§3) For the pERK assay, cells were serum starved for 5 to 6 hours. Curves were normalized to the maximum response from the fetal bovine serum (FBS) medium corresponding to a 5-minute stimulation. A 5-minute incubation with the agonists was selected for the dose response pERK assays (n=2).
(§4) Nonlinear regression curves were calculated per the three parameters method with no constraints.

[5] = target: T4, muscarinic acetylcholine receptor human M5 (hM5) (Homo sapiens, UniProt P08912); assay: pERK dose response in CHO cells stably expressing hM5; type: cell-based; conditions: rank hM3>hM5>hM2
T4 construct: expressed in transfected cells
T4 sequence (P08912 1-532): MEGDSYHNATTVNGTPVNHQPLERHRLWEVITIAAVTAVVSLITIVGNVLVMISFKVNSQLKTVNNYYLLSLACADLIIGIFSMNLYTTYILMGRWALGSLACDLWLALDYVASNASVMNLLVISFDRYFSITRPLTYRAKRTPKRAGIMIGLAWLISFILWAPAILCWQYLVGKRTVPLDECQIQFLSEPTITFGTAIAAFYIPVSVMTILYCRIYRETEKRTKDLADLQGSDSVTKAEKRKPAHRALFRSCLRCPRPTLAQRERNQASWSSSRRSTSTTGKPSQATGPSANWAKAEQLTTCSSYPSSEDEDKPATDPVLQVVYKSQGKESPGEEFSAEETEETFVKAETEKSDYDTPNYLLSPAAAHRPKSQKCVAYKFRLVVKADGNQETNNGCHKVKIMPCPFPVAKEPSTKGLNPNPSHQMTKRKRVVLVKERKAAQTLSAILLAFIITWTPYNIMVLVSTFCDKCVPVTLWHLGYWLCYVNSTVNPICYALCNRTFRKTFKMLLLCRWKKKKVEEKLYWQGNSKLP
Text: as §1, §2, §3, §4

T2 sequence (P20309 whole entry): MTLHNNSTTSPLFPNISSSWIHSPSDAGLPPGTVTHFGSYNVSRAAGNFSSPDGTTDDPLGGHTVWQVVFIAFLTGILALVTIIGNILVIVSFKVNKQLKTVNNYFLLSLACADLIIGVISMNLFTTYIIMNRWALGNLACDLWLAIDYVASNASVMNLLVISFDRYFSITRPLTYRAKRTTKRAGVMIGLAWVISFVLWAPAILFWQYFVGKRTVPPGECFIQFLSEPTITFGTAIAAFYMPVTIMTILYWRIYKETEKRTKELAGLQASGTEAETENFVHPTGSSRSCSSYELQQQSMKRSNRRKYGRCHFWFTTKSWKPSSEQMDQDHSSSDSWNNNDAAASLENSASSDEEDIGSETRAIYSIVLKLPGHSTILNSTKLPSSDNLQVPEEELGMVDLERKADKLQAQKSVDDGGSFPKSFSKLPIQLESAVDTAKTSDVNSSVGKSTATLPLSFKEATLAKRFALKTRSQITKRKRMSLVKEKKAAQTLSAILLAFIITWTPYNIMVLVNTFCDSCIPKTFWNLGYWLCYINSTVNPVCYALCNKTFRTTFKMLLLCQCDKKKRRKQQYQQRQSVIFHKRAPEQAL

| normalized AUC [1] | agonist capacity at hM2 [2] | EC50 [3] | agonist capacity at hM3 [3] | agonist capacity at hM4 [4] | agonist capacity at hM5 [5] | Structure (SMILES) |
| --- | --- | --- | --- | --- | --- | --- |
| 4210 pg·h/mg |  |  |  |  |  | CCCCCCOc1nsnc1C1=CCCN(C)C1 [Xanomeline tartrate, 3-(hexyloxy)-4-(1-methyl-1,2,5,6-tetrahydropyridin-3-yl)-1,2,5-thiadiazole, reference compound] |
| 8070 pg·h/mg | modestly potent partial agonists | 9.66 nM | modestly potent partial agonists | efficacious partial agonist | modestly potent partial agonists | [2H]C([2H])([2H])C([2H])([2H])C([2H])([2H])C([2H])([2H])C([2H])([2H])C([2H])([2H])Oc1nsnc1C1=CCCN(C)C1 [Xanomeline-d13, 3-((hexyl-1,1,2,2,3,3,4,4,5,5,6,6,6-d13)oxy)-4-(1-methyl-1,2,5,6-tetrahydropyridin-3-yl)-1,2,5-thiadiazole] |
| 6780 pg·h/mg | modestly potent partial agonists | 27.2 nM | modestly potent partial agonists | efficacious partial agonist | modestly potent partial agonists | [2H]C([2H])([2H])N1CCC=C(c2nsnc2OC([2H])([2H])C([2H])([2H])C([2H])([2H])C([2H])([2H])C([2H])([2H])C([2H])([2H])[2H])C1 [Xanomeline-d16, 3-((hexyl-1,1,2,2,3,3,4,4,5,5,6,6,6-d13)oxy)-4-(1-(methyl-d3)-1,2,5,6-tetrahydropyridin-3-yl)-1,2,5-thiadiazole] |
